Data as given in ChEMBL document CHEMBL1201862, “PubChem BioAssay data set” (2004).
Each block holds one compound with its values, some of them ahead of it. Active and inactive are the calls of the source.

What was measured:
[1] = biological target: NACHT, LRR and PYD domains-containing protein 3 (Homo sapiens, UniProt Q96P20); assay: NALP3 inhibitors in yeast, dose response, luminescent (AID 488799); type: functional
Bcl-2-like protein 10 = Bcl-2-like protein 10 (Homo sapiens, UniProt Q9HD36); assay: Bcl-B/TR3 peptide binding disruption – biochemical, fluorescence polarization, FITC-TR3 peptide, selectivity assay for Bfl-1 inhibitor project, primary screen (AID 748);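 note: fluorescence polarization from a fluorescein-labelled TR3 peptide binding purified Bcl-B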
Chain of Bcl-2-like protein 10 (Q9HD36 whole entry): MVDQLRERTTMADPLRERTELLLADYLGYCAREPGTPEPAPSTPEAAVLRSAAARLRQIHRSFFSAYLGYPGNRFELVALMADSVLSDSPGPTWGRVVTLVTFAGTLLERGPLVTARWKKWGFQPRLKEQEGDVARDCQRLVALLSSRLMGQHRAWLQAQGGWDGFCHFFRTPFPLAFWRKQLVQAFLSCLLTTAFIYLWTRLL

[2] = biological target: T1, Calpain-2 catalytic subunit (Sus scrofa, UniProt P43367); assay: m-calpain protease blockers, concentration series – biochemical, fluorogenic peptide substrate, dose response (AID 1420); type: functional
T1 sequence (P43367 whole entry): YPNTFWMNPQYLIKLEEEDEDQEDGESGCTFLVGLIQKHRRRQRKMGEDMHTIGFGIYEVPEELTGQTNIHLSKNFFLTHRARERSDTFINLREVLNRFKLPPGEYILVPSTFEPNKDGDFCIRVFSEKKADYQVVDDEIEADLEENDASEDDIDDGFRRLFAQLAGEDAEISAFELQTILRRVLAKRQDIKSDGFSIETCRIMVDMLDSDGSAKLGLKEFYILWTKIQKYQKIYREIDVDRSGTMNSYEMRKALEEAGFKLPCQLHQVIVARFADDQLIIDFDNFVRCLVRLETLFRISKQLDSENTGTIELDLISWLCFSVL

Wee1-like protein kinase = Wee1-like protein kinase (Homo sapiens, UniProt P30291); assay: HeLa cell cycle G2/M accumulation – FACS, mechanism study for Wee1 degradation inhibitor project, late-stage follow-up, panel member Wee1 Degradation (AID 2088)
[3] = biological target: G2/mitotic-specific cyclin-B1 (Homo sapiens, UniProt P14635); assay: HeLa cell cycle G2/M accumulation – FACS, mechanism study for Wee1 degradation inhibitor project, late-stage follow-up, panel member Cyclin B Degradation (AID 2088)
Genome polyprotein = Genome polyprotein (Hepatitis C virus, UniProt Q2Q167); assay: disruption of hepatitis C core self-association – biochemical, TR-FRET, dose response (AID 2159); set-up: species or system Hepacivirus hominis;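 note: blocks dimerization of HCV core protein measured by TR-FRET between tagged core106 pairs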
Chain of Genome polyprotein (Q2Q167 whole entry): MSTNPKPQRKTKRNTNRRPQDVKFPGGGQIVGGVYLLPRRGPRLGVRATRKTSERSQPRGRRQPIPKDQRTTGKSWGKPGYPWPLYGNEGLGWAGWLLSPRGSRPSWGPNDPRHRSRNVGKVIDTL

[4] = biological target: T2, Voltage-gated N-type calcium channel alpha-1B subunit/Amyloid beta A4 precursor protein-binding family A member 1 (Homo sapiens, UniProt Q00975+Q02410); type: protein assay
T2 sequence (Q00975 whole entry): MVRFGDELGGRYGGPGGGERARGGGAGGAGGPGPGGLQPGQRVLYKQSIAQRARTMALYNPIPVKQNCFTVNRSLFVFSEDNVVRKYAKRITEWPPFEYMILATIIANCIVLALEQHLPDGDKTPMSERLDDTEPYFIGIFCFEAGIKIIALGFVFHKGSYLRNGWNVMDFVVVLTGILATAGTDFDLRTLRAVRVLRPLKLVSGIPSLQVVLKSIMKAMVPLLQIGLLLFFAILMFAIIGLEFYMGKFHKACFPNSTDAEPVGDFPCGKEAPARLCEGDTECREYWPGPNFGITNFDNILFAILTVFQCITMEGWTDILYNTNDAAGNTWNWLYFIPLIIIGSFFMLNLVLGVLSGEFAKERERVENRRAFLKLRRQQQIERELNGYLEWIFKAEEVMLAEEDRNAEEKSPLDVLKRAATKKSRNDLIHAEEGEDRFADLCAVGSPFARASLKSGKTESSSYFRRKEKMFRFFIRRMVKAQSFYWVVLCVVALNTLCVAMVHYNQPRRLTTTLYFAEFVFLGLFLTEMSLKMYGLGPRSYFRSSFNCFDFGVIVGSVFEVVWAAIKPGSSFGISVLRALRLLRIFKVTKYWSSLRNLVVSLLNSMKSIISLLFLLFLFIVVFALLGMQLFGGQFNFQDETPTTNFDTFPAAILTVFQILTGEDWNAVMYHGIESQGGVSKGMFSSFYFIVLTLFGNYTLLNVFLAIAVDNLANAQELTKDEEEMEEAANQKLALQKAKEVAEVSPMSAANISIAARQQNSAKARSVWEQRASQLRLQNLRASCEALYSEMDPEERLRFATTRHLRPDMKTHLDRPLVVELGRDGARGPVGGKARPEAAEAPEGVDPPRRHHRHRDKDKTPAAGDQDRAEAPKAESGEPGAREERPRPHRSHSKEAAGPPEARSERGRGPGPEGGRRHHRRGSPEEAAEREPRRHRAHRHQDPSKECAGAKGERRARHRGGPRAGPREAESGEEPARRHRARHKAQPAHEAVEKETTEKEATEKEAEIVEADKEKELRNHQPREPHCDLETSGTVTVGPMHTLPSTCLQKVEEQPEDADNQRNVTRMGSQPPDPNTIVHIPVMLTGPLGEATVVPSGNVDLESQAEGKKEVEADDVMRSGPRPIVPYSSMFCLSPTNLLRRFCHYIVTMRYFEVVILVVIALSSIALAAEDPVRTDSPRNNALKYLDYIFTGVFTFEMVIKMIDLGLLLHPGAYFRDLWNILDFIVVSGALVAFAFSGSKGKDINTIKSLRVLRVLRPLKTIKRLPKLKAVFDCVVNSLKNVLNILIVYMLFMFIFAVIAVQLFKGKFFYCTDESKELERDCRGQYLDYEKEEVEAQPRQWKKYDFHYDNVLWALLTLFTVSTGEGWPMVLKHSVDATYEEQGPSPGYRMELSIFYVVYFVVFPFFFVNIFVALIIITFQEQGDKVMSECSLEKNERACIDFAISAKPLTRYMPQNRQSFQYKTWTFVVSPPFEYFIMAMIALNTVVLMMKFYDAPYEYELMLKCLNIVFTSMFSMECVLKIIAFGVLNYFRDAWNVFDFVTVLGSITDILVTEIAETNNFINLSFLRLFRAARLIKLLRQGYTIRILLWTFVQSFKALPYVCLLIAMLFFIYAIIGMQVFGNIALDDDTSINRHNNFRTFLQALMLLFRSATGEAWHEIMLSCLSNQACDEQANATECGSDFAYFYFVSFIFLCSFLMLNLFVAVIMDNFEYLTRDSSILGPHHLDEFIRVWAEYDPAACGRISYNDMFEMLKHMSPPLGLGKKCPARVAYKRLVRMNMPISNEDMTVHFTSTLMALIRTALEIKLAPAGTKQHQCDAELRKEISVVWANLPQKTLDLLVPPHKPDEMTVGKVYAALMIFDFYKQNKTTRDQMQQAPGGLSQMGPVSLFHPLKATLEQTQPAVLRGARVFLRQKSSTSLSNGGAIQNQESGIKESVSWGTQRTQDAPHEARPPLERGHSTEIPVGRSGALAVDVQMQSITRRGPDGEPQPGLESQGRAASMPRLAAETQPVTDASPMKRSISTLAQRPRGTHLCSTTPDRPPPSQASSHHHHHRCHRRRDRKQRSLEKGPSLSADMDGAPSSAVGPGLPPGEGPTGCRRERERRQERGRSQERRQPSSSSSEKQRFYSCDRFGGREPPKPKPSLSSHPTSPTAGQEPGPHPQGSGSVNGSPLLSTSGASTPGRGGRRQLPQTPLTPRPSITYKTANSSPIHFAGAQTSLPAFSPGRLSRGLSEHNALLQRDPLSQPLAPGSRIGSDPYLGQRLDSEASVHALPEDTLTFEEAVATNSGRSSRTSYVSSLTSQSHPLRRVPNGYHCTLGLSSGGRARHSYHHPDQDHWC
T2 sequence (Q02410 whole entry): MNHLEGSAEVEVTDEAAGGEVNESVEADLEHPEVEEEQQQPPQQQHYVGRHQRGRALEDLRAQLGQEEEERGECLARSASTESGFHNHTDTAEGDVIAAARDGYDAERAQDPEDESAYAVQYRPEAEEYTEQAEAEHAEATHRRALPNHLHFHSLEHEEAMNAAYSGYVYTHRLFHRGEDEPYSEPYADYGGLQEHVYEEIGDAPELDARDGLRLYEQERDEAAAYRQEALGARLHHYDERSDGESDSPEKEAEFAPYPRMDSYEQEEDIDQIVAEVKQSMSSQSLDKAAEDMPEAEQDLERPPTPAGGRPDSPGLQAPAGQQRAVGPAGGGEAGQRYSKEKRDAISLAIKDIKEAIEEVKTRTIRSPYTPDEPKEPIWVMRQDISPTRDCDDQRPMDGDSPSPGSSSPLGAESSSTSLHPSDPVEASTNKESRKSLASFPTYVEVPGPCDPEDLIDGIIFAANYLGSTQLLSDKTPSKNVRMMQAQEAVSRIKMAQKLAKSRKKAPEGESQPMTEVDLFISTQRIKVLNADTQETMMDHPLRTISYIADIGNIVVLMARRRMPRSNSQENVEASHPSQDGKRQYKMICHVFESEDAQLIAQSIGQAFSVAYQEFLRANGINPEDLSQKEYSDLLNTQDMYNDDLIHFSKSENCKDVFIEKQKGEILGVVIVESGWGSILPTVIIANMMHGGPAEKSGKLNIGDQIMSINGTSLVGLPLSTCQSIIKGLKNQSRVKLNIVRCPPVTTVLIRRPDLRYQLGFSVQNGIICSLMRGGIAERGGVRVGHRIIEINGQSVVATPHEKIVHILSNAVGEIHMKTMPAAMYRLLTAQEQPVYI

[5] = biological target: T2, Voltage-gated N-type calcium channel alpha-1B subunit/Amyloid beta A4 precursor protein-binding family A member 1; type: protein assay; remark: listed apart in the source
[6] = biological target: Induced myeloid leukemia cell differentiation protein Mcl-1 (Homo sapiens, UniProt Q07820); type: functional
Chain of Induced myeloid leukemia cell differentiation protein Mcl-1 (Q07820 whole entry): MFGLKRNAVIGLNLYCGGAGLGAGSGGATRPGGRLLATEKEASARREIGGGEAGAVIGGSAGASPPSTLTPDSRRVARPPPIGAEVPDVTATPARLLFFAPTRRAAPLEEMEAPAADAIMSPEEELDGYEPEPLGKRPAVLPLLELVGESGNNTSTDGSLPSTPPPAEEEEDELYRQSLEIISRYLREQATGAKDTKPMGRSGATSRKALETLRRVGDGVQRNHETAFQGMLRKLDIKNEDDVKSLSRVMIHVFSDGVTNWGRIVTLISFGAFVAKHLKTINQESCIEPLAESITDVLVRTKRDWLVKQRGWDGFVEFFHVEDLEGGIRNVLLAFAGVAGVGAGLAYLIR

SUMO E1/E2 = SUMO E1/E2 (Homo sapiens, UniProt P63279+Q9UBE0+Q9UBT2); assay: SAR analysis of SUMOylation using HTRF in an in-Vitro dose response assay. [Related pubchem assays (depositor defined):AID2006, AID2011, AID2018, AID2069, AID2658]; type: functional
[7] = biological target: T2, Voltage-gated N-type calcium channel alpha-1B subunit/Amyloid beta A4 precursor protein-binding family A member 1; assay: disruptors of Mint-PDZ/N-type channel peptide interaction – biochemical, HTRF, set 2, SAR follow-up (AID 434980); type: functional
[8] = biological target: T2, Voltage-gated N-type calcium channel alpha-1B subunit/Amyloid beta A4 precursor protein-binding family A member 1; assay: disruptors of Mint-PDZ/N-type channel peptide interaction – biochemical, HTRF, SAR follow-up (AID 2489); type: functional
[9] = biological target: T3, Probable nicotinate-nucleotide adenylyltransferase (Staphylococcus aureus (strain N315), UniProt P65502); type: functional, Staphylococcus aureus subsp. aureus N315;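 for IC50 Mean: confirmatory dose-response retesting of NadD inhibitor hits first found in an ultra-high-throughput screen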
[10] = biological target: T3, Probable nicotinate-nucleotide adenylyltransferase; type: functional, Staphylococcus aureus subsp. aureus N315; conditions: read-out: IC50_Mean
Mu-type opioid receptor = Mu-type opioid receptor (Homo sapiens, UniProt P35372); assay: SAR Analysis of Antagonists of the MOR Receptor using an Image-Based Assay - Set 3. [Related pubchem assays (depositor defined):AID1777, AID1785, AID1786, AID1966, AID2133, AID2136, AID2284, AID2285, AID2420]; type: functional
Chain of Mu-type opioid receptor (P35372 whole entry): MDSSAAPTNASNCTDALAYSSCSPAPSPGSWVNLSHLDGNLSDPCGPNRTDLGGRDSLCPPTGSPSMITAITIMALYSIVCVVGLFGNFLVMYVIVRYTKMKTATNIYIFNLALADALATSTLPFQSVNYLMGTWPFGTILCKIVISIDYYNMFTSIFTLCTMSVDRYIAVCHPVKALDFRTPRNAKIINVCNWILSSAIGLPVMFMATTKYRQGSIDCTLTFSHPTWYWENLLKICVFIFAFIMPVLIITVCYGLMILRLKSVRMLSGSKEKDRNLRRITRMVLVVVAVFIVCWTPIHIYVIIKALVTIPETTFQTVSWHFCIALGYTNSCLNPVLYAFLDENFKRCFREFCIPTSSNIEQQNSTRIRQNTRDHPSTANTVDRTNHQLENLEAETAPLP

[11] = biological target: T4, Kappa-type opioid receptor (Homo sapiens, UniProt P41145); assay: SAR analysis of small molecule antagonists of the kappa opioid receptor via a luminescent beta-arrestin assay - Set 4. [Related pubchem assays (depositor defined):AID1777, AID1778, AID1785, AID1786, AID1966, AID2133, AID2136, AID2285]; type: functional
T4 sequence (P41145 whole entry): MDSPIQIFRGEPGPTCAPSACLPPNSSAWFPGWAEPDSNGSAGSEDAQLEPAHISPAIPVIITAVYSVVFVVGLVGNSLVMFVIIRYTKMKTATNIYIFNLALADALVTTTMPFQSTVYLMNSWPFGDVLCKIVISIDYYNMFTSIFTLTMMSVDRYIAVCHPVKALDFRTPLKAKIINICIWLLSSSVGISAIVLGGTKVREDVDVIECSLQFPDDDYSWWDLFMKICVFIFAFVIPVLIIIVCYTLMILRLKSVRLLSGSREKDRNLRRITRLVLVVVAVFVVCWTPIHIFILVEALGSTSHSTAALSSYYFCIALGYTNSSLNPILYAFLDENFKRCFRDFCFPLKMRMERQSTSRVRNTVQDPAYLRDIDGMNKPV

[12] = biological target: Delta-type opioid receptor (Homo sapiens, UniProt P41143); assay: SAR Analysis of Antagonists of the DOR Receptor using an Image-Based Assay - Set 3. [Related pubchem assays (depositor defined):AID1777, AID1785]; type: functional;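 note: U2OS cells expressing DOR1 and beta-arrestin GFP stimulated with 100 nM SNC80; imaging of GFP-tagged beta-arrestin moving into spots after receptor activation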
Chain of Delta-type opioid receptor (P41143 whole entry): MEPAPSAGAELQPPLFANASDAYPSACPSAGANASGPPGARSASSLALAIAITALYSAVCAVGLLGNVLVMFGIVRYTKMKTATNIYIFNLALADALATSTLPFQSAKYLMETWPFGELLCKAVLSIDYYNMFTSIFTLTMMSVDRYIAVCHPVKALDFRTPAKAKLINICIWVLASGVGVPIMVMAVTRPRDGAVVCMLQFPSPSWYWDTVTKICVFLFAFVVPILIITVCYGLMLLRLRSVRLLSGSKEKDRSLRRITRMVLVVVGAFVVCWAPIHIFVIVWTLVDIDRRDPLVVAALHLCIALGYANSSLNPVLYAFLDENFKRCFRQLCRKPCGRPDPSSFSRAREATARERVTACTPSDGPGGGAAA

[13] = biological target: T4, Kappa-type opioid receptor; assay: SAR analysis of Antagonists of the Kappa Opioid Receptor (KOR) using an Image-Based Assay - Set 4. [Related pubchem assays (depositor defined):AID1777, AID1785]; type: functional

SMILES: CCCCCNC(=O)C(=O)C1C(=O)Nc2ccccc21 (stereo not drawn)
IC50 [1]: 2.9 µM (active)

SMILES: Cc1ccc(S(=O)(=O)NCc2ccc(C(=O)NC3CCN(Cc4ccccc4)C3)cc2)cc1 (stereo not drawn)
IC50 (Mu-type opioid receptor): > 32 µM (inactive)
IC50 [11]: > 20 µM (inactive)
IC50 [12]: > 32 µM (inactive)
IC50 [13]: > 32 µM (inactive)

Results, then the compound that gave them:

IC50 (Bcl-2-like protein 10): 41.8 µM (active)
IC50 [2]: 14.4 µM (not active)
SMILES: CCN(CC)CCc1c(C)[nH]c(C(=O)OCc2ccccc2)c1C

EC50 (Wee1-like protein kinase): > 16.6 µM (active)
EC50 [3]: > 49.7 µM (inactive)
SMILES: Cc1cc(O)nc(-n2nc(C)cc2NC(=O)c2cc3ccccc3o2)n1

IC50 (Genome polyprotein): > 49.8 µM (not active)
IC50 [4]: 2.59 µM (active)
IC50 [5]: 3.76 µM (active)
IC50 [6]: 2.29 µM (active)
IC50 (SUMO E1/E2): 19.4 µM (active)
IC50 [7]: 17.7 µM (active)
IC50 [8]: 15 µM (active)
IC50 [9]: 8.76 µM (active)
IC50 [10]: 28.1 µM (active)
SMILES: COc1ccc(NC(=O)c2cc(-c3ccco3)nc3ccccc23)cc1S(=O)(=O)N1CCOCC1
